Results reported in patent publication US9611270B2, “Inhibitors of CYP17A1” (University of Kansas, priority 2014, dated 2017).
Like-named read-outs stand apart in the source and are kept apart here. Values belong to the compound of their own block, whether it stands above or below them.

Columns and labels:
human CYP17A1 = human CYP17A1 (Homo sapiens (Human), UniProt P05093); experiment: Analysis of 17α-hydroxyprogesterone generation by CYP17A1 using HPLC
Excerpt: Modified constructs of human CYP17A1, human CYP21A2, and human NADPH-cytochrome P450 oxidoreductase (POR) were used. These protein constructs lack a hydrophobic N-terminal transmembrane helix.
The additional A19 and H signify an N-terminal deletion of 19 amino acids for solubility (the “A19”) and a C-terminal four-histidine tag for purification (the “H”). Hereafter in the discussion of the assays below, “CYP17A1” will refer to CYP17A1HΔ19 for simplicity.
The human POR construct utilized bears an N-terminal truncation of a transmembrane helix (Δ27) to increase expression levels, and a K59Q mutation to prevent proteolysis.
Data from at least two replicates with 8 or more activity points each were averaged and analyzed for standard error.
The assays were carried out with 50 pmol of purified CYP17A1 in a 1:4 ratio with POR. The protein stocks were gently mixed together by pipetting and incubated on ice for 20 minutes. This reconstituted protein system was added to buffer (50 mM Tris, pH 7.4 and 5 mM MgCl2) containing progesterone (0-50 μM) for a total volume of 500 μL. For the inhibition studies, 50 μM progesterone was used.

human CYP21A2 [1] = experiment: Analysis of 21-hydroxyprogesterone generation by CYP21A2 using GC/MS; format: biochemical; settings: for 17A1/21A2 Sel. Factor: CYP21A2 IC50 divided by CYP17A1 IC50
Excerpt: (§1) Two methods for detecting enzymatic activity were utilized. […] University of Kansas, Lawrence, K S, 2011.
(§2) Toxicol. Appl. […] Mol. Endocrinol. 2007, 21, 1958-1968.
(§3) The CYP21A2 construct that was used, CYP21A2dH, was also engineered as according to published procedures. See, e.g., Blake, L. C.; Scott, E. E. Cytochromes P450 as therapeutic targets and counter-targets for the prevention of lung cancer and treatment of steroidogenic diseases. University of Kansas, Lawrence, K S, 2012. In this construct, the “d” refers to an 18 amino acid N-terminal deletion. An N-terminal solubility tag was added, in addition to a C-terminal four-histidine tag (“H”). […] “Full-length CYP21A2” will be specifically designated when appropriate.
(§4) Endocrinology 2011, 152, 2904-2908.
(§5) GC/MS was performed on an Agilent Technologies 6850 Network GC System equipped with a 6850 series autosampler and an Agilent Technologies 5975C VL MSD with triple axis detector. The electron energy was 70 eV and the ion source temperature was 230° C. Each sample (5 μL) was injected at an injector temperature of 280° C. and separated through an Ultra-1 capillary column (25 m×0.2 mm inner diameter, 0.33-mm film thickness; Agilent Technologies). […] Helium was used as the carrier gas with a column head pressure of 210.3 kPa (column flow: 1.0 mL/min at an oven temperature of 215° C.). For quantitative analysis, the characteristic ions of the monitored steroids were determined as their poly-TMS derivatives. Product and starting material MS counts were normalized for analysis against a known amount of estriol internal standard.
(§6) Samples were prepared for GC/MS by solid phase extraction (SPE) using SUPELCO Supel™-Select HLB SPE tubes, bed weight 30 mg (Sigma Aldrich). Parallel evaporation was performed using a GeneVac EZ-2 plus evaporator. Poly-trimethylsilyl derivatization was accomplished using a 1000:8:4 (v/w/w) N-methyl-N-(trimethylsilyl) trifluoroacetamide:ammonium iodide:dithioerythritol mixture that had been stirred at room temperature for at least 12 hours (MSTFA).
(§7) For the inhibition studies, 0.5 μM progesterone was used as the substrate concentration for inhibition studies. […] Reactions were quenched 10 minutes after the addition of NADPH by the same (internal standard-containing) solution, and allowed to stand on ice for 10 minutes.
(§8) Solid phase extraction (SPE) cartridges (30 mg HLB resin, Sigma-Aldrich) were used on a parallel draining rack. SPEs were pre-equilibrated with 2×1 mL hexanes, 2×1 mL acetone, and 3×1 mL deionized water. Reaction samples (750 μL) were loaded onto individual SPE cartridges, allowed to drain, and then washed with 1 mL water. Glass vials (4 mL capacity) were placed under each tube, and samples were eluted with 4×1 mL acetone. The vials were concentrated for at least 12 hours by parallel evaporation to remove solvent and residual water. MSTFA derivatizing agent (120 μL) was added to each sample vial, which was capped and heated to 60° C. for 60 minutes, stirring by hand intermittently.
(§9) The amount of 21-hydroxyprogesterone present was determined by GC-MS analysis using single ion monitoring (M/Z 546.35, ca. 26 min retention time), and analyzed against the estriol internal standard peak (M/Z 504.30, ca. 15 min retention time). Progesterone (M/Z 458.30, ca. 16 min retention time) was detected for quality control among reactions and standards. For instance, if a sample registered no product or standard peak as well as no progesterone peak, it was discarded from analysis due to experimental error.

human CYP21A2 [2] = biological target: human CYP21A2 (Homo sapiens (Human), UniProt P08686); experiment: as above; format: biochemical
Excerpt: as §1, §2, §3, §4, §5, §6, §7, §8, §9

[3] = CYP17A1 IC50, progesterone 17α-hydroxylation, 50 μM progesterone, purified CYP17A1 with POR 1:4, ± standard error

Sequence of human CYP21A2 (Homo sapiens (Human), UniProt P08686) (P08686 19-495): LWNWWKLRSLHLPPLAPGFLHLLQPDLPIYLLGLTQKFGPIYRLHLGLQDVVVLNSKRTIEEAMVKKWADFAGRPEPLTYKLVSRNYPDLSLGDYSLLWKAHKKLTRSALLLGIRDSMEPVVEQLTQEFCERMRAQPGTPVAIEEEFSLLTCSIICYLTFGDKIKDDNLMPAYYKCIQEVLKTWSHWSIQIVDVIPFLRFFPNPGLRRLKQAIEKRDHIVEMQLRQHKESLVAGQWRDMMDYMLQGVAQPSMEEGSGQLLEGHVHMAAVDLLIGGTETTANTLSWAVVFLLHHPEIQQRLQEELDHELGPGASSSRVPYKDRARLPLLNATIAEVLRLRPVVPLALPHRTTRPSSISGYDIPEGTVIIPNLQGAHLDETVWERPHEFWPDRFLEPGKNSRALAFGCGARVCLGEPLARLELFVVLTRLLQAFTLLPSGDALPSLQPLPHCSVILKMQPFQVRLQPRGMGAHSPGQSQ
Sequence of human CYP17A1 (P05093 20-508): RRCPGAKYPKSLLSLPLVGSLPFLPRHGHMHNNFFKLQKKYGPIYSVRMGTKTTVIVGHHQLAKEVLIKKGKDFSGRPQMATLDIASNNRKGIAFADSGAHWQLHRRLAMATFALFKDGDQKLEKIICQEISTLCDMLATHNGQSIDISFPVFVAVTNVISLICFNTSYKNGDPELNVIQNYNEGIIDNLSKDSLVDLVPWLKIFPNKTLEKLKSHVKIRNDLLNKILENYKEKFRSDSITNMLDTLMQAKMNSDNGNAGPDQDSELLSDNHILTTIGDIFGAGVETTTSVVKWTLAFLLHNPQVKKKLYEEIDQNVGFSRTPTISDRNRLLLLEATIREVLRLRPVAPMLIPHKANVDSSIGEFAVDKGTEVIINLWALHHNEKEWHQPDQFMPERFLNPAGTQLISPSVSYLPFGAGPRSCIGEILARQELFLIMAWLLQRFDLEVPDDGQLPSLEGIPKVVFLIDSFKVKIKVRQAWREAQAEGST

Structure (SMILES): C[C@]12CC[C@H]3[C@@H](C[C@@H]4O[C@@]45C[C@@H](O)CC[C@]35C)[C@@H]1CC=C2c1cccnc1
IC50 (human CYP17A1; [3]): 428 ± 20 nM

Structure (SMILES): CN[C@H]1C[C@@H]2[C@H](CC[C@]3(C)C(c4cccnc4)=CC[C@@H]23)[C@@]2(C)CC[C@H](O)CC12 (stereo partly drawn)
IC50 (human CYP17A1): 3970 nM

Structure (SMILES): C[C@]12CC[C@H](O)CC1C(C#N)=C[C@@H]1[C@@H]2CC[C@]2(C)C(c3cccnc3)=CC[C@@H]12 (stereo partly drawn) [Compound 37, 6-Cyano-17-(3-pyridyl)-androst-6,16-dien-3β-ol]
IC50 (human CYP17A1; [3]): 244 ± 14 nM

Structure (SMILES): C[C@]12CC[C@H](O)CC1=C(C(N)=O)C[C@@H]1[C@@H]2CC[C@]2(C)C(c3cccnc3)=CC[C@@H]12 [Compound 42, 3β-Hydroxy-17-(3-pyridyl)-androst-5,16-dien-6-amide]
17A1/21A2 Sel. Factor (human CYP21A2 [1]): 72.2
CYP17A1/CYP21A2 selectivity relative to abiraterone (human CYP21A2 [1]; times greater than abiraterone): about 30 times
IC50 (human CYP21A2 [2]): 8.7 µM
IC50 (human CYP17A1; [3]): 120 ± 12 nM

Structure (SMILES): C[C@]12CC[C@H](O)CC1=CC[C@@H]1[C@@H]2CC[C@]2(C)C(n3cnc4ccccc43)=CC[C@@H]12 [galaterone, reference compound]
17A1/21A2 Sel. Factor (human CYP21A2 [1]): 0.9
IC50 (human CYP17A1; [3]): 282 ± 16 nM

Structure (SMILES): C[C@]12CC[C@H](O)CC1=C([N+](=O)[O-])C[C@@H]1[C@@H]2CC[C@]2(C)C(c3cccnc3)=CC[C@@H]12 [Compound 41, 6-Nitro-17-(3-pyridyl)-androst-5,16-dien-3β-ol]
17A1/21A2 Sel. Factor (human CYP21A2 [1]): 4.5
IC50 (human CYP21A2 [2]): 0.831 ± 0.096 µM
IC50 (human CYP17A1; [3]): 183 ± 23 nM

Structure (SMILES): C[C@]12CC[C@H](O)CC1=C(C#N)C[C@@H]1[C@@H]2CC[C@]2(C)C(c3cccnc3)=CC[C@@H]12 [Compound 38, 6-Cyano-17-(3-pyridyl)-androst-5,16-dien-3β-ol]
IC50 (human CYP17A1; [3]): 174 ± 8 nM

IC50 (human CYP17A1): 5410 nM
Structure (SMILES): C[C@]12CC[C@H](O)C[C@@H]1NC(=O)C[C@@H]1[C@@H]2CC[C@]2(C)C(c3cccnc3)=CC[C@@H]12

IC50 (human CYP17A1): 1380 nM
Structure (SMILES): CC(=O)N1CC[C@@H]2[C@H](CC[C@]3(C)C(c4cccnc4)=CC[C@@H]23)[C@@]2(C)CC[C@H](O)C[C@H]12

Structure (SMILES): C[C@]12CC[C@H](O)C[C@@H]1/C(=N/O)C[C@@H]1[C@@H]2CC[C@]2(C)C(c3cccnc3)=CC[C@@H]12 [Compound 33, 6-Oxime-17-(3-pyridyl)-androst-16-en-3β-ol]
IC50 (human CYP21A2 [2]): 10.3 µM
IC50 (human CYP17A1): 120 to 183 nM
IC50 (human CYP17A1; [3]): 150 ± 10 nM

IC50 (human CYP17A1): 199 ± 13 nM
Structure (SMILES): C[C@]12CC[C@H](O)C[C@@H]1n1nnnc1C[C@@H]1[C@@H]2CC[C@]2(C)C(c3cccnc3)=CC[C@@H]12

Structure (SMILES): CNC(=O)c1ccc2cc([C@@]3(O)CCn4cncc43)ccc2c1 [orteronel, reference compound]
17A1/21A2 Sel. Factor (human CYP21A2 [1]): 1.0
CYP17A1 progesterone hydroxylation inhibitory activity (in words) (human CYP17A1; progesterone 17α-hydroxylation): significantly less potent

Structure (SMILES): C[C@]12CC[C@H](O)CC1=CC[C@@H]1[C@@H]2CC[C@]2(C)C(c3cccnc3)=CC[C@@H]12 [abiraterone, 17-(3-Pyridyl)-androst-5,16-dien-3β-ol, reference compound]
17A1/21A2 Sel. Factor (human CYP21A2 [1]): 2.3
IC50 (human CYP17A1): 130 nM

Structure (SMILES): C[C@]12CC[C@H](O)C[C@@H]1C(=O)C[C@@H]1[C@@H]2CC[C@]2(C)C(c3cccnc3)=CC[C@@H]12
IC50 (human CYP17A1): 208 ± 12 nM
